Assay results reported in PubChem BioAssay AID330 (DTP/NCI, 2004).
Where “and” joins values, the source holds several entries; their conditions need not be identical. Identical values can stand only once. Inconclusive results and toxic doses are left out.

Tested on: P388 leukemia ip, CD2F1 mice, survival T/C
Test: NCI In Vivo Anticancer Drug Screen. Data for tumor model P388 Leukemia (intraperitoneal) in CD2F1 (CDF1) mice
Conditions: endpoint: median survival time, higher = longer survival
Summary of the method: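 Mice carrying the transplanted tumor received test compound or vehicle. Survival was recorded in each group, and the value is the treated-group measurement divided by that of the vehicle-treated control group.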

[1] = dose: 50.0 mg/kg/injection, schedule: Q01DX009 (ip), vehicle: Klucel (hydroxypropylcellulose) (HPC)
[2] = dose: 100.0 mg/kg/injection, schedule: Q01DX009 (ip), vehicle: Klucel (hydroxypropylcellulose) (HPC)
[3] = dose: 200.0 mg/kg/injection, schedule: Q01DX009 (ip), vehicle: Klucel (hydroxypropylcellulose) (HPC)
[4] = dose: 60.0 mg/kg/injection, schedule: Q01DX005 (ip), vehicle: saline with Tween-80
[5] = dose: 120.0 mg/kg/injection, schedule: Q01DX005 (ip), vehicle: saline with Tween-80
[6] = dose: 240.0 mg/kg/injection, schedule: Q01DX005 (ip), vehicle: saline with Tween-80
[7] = dose: 60.0 mg/kg/injection, schedule: Q01DX005 (ip), vehicle: Klucel (hydroxypropylcellulose) (HPC)
[8] = dose: 120.0 mg/kg/injection, schedule: Q01DX005 (ip), vehicle: Klucel (hydroxypropylcellulose) (HPC)
[9] = dose: 50.0 mg/kg/injection, schedule: Q01DX005 (ip), vehicle: Klucel (hydroxypropylcellulose) (HPC)
[10] = dose: 100.0 mg/kg/injection, schedule: Q01DX005 (ip), vehicle: Klucel (hydroxypropylcellulose) (HPC)
[11] = dose: 200.0 mg/kg/injection, schedule: Q01DX005 (ip), vehicle: Klucel (hydroxypropylcellulose) (HPC)
[12] = dose: 100.0 mg/kg/injection, schedule: Q01DX005 (ip), vehicle: saline with Tween-80
[13] = dose: 50.0 mg/kg/injection, schedule: Q01DX009 (ip), vehicle: saline with Tween-80

For CCCCCCCCCCCCCCCC(O)CC(O)CC(O)CC1CC=CC(=O)O1 (stereo unspecified), the T/C (dose: 4.0 mg/kg/injection, schedule: Q01DX009 (ip), vehicle: Klucel (hydroxypropylcellulose) (HPC)) was 100 % of control, the T/C (dose: 8.0 mg/kg/injection, schedule: Q01DX009 (ip), vehicle: Klucel (hydroxypropylcellulose) (HPC)) was 100 % of control and the T/C (dose: 16.0 mg/kg/injection, schedule: Q01DX009 (ip), vehicle: Klucel (hydroxypropylcellulose) (HPC)) was 104 % of control. For the same compound, the T/C (dose: 32.0 mg/kg/injection, schedule: Q01DX009 (ip), vehicle: Klucel (hydroxypropylcellulose) (HPC)) was 109 % of control.

For ClCC(Br)CBr (stereo unspecified) (tested in a mixture with another compound), the T/C (dose: 12.5 mg/kg/injection, schedule: Q01DX009 (ip), vehicle: saline) was 96 % of control and the T/C (dose: 25.0 mg/kg/injection, schedule: Q01DX009 (ip), vehicle: saline) was 96 % of control.

CC(C)(C)c1cc(C(C)(C)C)c(O)c(Br)c1O was tested, and the T/C [1] was 101 % of control, the T/C [2] was 102 % of control and the T/C [3] was 101 % of control.

For O=C(Cc1nc2ccccc2nc1CC(=O)c1cccnc1)c1cccnc1, the T/C [4] was 102 % of control, the T/C [5] was 93 % of control and the T/C [6] was 93 % of control.

In the case of C=C1C(=O)OC2CC(C)CCC/C(CO)=C/C(OC(=O)/C(=C/CO)CO)C12 (stereo unspecified), the T/C (dose: 7.0 mg/kg/injection, schedule: Q01DX005 (ip), vehicle: saline) is reported as 98 % of control, the T/C (dose: 14.0 mg/kg/injection, schedule: Q01DX005 (ip), vehicle: saline) is reported as 101 % of control and the T/C (dose: 28.0 mg/kg/injection, schedule: Q01DX005 (ip), vehicle: saline) is reported as 114 % of control.

In the case of Clc1ccc(-c2nnc(-c3cccc(Cl)n3)o2)c(Cl)c1, the T/C (dose: 43.8 mg/kg/injection, schedule: Q01DX005 (ip), vehicle: saline with Tween-80) is reported as 99 % of control and the T/C (dose: 87.5 mg/kg/injection, schedule: Q01DX005 (ip), vehicle: saline with Tween-80) is reported as 87 % of control.

For CN(C)C(=O)N1OC(CN)CC1=O (stereo unspecified), the T/C [7] was 105 % of control, the T/C [8] was 104 % of control and the T/C (dose: 240.0 mg/kg/injection, schedule: Q01DX005 (ip), vehicle: Klucel (hydroxypropylcellulose) (HPC)) was 105 % of control.

For COc1ccc(-c2cc3cc(OC)c(OC)cc3c(-c3ccccc3)n2)cc1OC, the T/C [4] was 98 % of control, the T/C [5] was 95 % of control and the T/C [6] was 90 % of control.

For Oc1c(CNCc2ccc(Cl)c(Cl)c2)ccc2cccnc12, the T/C (dose: 100.0 mg/kg/injection, schedule: Q04DX003 (ip), vehicle: Klucel (hydroxypropylcellulose) (HPC)) was 104 % of control, the T/C (dose: 200.0 mg/kg/injection, schedule: Q04DX003 (ip), vehicle: Klucel (hydroxypropylcellulose) (HPC)) was 105 % of control and the T/C (dose: 400.0 mg/kg/injection, schedule: Q04DX003 (ip), vehicle: Klucel (hydroxypropylcellulose) (HPC)) was 106 % of control.

C/C(=C\COc1cc(O)c2c(c1)C(=O)c1cc(C)cc(O)c1C2=O)CCC1OC1(C)C (stereo unspecified) was tested, and the T/C (dose: 2.5 mg/kg/injection, schedule: Q01DX005 (ip), vehicle: Klucel (hydroxypropylcellulose) (HPC)) was 98 % of control, the T/C (dose: 5.0 mg/kg/injection, schedule: Q01DX005 (ip), vehicle: Klucel (hydroxypropylcellulose) (HPC)) was 93 % of control and the T/C (dose: 10.0 mg/kg/injection, schedule: Q01DX005 (ip), vehicle: Klucel (hydroxypropylcellulose) (HPC)) was 90 % of control. For the same compound, the T/C (dose: 20.0 mg/kg/injection, schedule: Q01DX005 (ip), vehicle: Klucel (hydroxypropylcellulose) (HPC)) was 88 % of control.

In the case of O=c1c2ccccc2ncn1CC1(O)CC2NCCCC2O1 (stereo unspecified), the T/C (dose: 2.0 mg/kg/injection, schedule: Q01DX009 (ip), vehicle: distilled water + Tween-80) is reported as 115 % of control, the T/C (dose: 4.0 mg/kg/injection, schedule: Q01DX009 (ip), vehicle: distilled water + Tween-80) is reported as 117 % of control and the T/C (dose: 5.0 mg/kg/injection, schedule: Q01DX009 (ip), vehicle: Klucel (hydroxypropylcellulose) (HPC)) is reported as 116 % of control. For the same compound, the T/C (dose: 8.0 mg/kg/injection, schedule: Q01DX009 (ip), vehicle: distilled water + Tween-80) was 102 % of control, the T/C (dose: 10.0 mg/kg/injection, schedule: Q01DX009 (ip), vehicle: Klucel (hydroxypropylcellulose) (HPC)) was 107 % of control and the T/C (dose: 16.0 mg/kg/injection, schedule: Q01DX009 (ip), vehicle: distilled water + Tween-80) was 117 % of control. For the same compound, the T/C (dose: 20.0 mg/kg/injection, schedule: Q01DX009 (ip), vehicle: Klucel (hydroxypropylcellulose) (HPC)) was 98 % of control.

CC(C)c1ccc(/C(O)=C/C(=O)C(=O)/C=C(/O)c2ccc(C(C)C)cc2)cc1 was tested, and the T/C (dose: 100.0 mg/kg/injection, schedule: Q04DX002 (ip), vehicle: saline) was 100 % of control, the T/C (dose: 200.0 mg/kg/injection, schedule: Q04DX002 (ip), vehicle: saline) was 100 % of control and the T/C (dose: 400.0 mg/kg/injection, schedule: Q04DX002 (ip), vehicle: saline) was 99 % of control.

In the case of NC(COC(=O)NCCCl)C(=O)O (stereo unspecified), the T/C [1] is reported as 88 % of control, the T/C [2] is reported as 93 % of control and the T/C [3] is reported as 111 % of control.

COc1ccc(-n2cnc3c(cnn3CN3CCCCC3)c2=O)cc1 was tested, and the T/C [7] was 104 % of control and the T/C [8] was 103 % of control.

With Nc1ncnc(N)c1NC(=O)c1ccccc1 the T/C (dose: 60.0 mg/kg/injection, schedule: Q01DX005 (ip), vehicle: suspension in saline) was 98 % of control and the T/C (dose: 120.0 mg/kg/injection, schedule: Q01DX005 (ip), vehicle: suspension in saline) was 106 % of control.

In the case of CCOC(=O)C1=C(C)NC(=O)NC1c1cccs1 (stereo unspecified), the T/C [9] is reported as 98 % of control, the T/C [10] is reported as 96 % of control and the T/C [11] is reported as 97 % of control.

O=c1[nH]c(=O)c2cccnc2[nH]1 was tested, and the T/C (dose: 6.25 mg/kg/injection, schedule: Q01DX009 (ip), vehicle: Klucel (hydroxypropylcellulose) (HPC)) was 93 % of control, the T/C (dose: 12.5 mg/kg/injection, schedule: Q01DX009 (ip), vehicle: Klucel (hydroxypropylcellulose) (HPC)) was 99 % of control and the T/C (dose: 25.0 mg/kg/injection, schedule: Q01DX009 (ip), vehicle: Klucel (hydroxypropylcellulose) (HPC)) was 121 % of control and 93 % of control. The T/C [1] was 118 % of control and the T/C [2] was 99 % of control.

With COc1cc2c[n+](C)c3c(c2cc1OC)Cc1cc2c(cc1-3)OCO2 the T/C (dose: 25.0 mg/kg/injection, schedule: Q01DX005 (ip), vehicle: saline with Tween-80) was 151 % of control, the T/C (dose: 50.0 mg/kg/injection, schedule: Q01DX005 (ip), vehicle: saline) was 174 % of control and the T/C [12] was 168 % of control.

CC(C)(C)C(=O)OCCN(CCOC(=O)C(C)(C)C)C(=O)COC(=O)C(C)(C)C was tested, and the T/C [13] was 96 % of control, the T/C (dose: 100.0 mg/kg/injection, schedule: Q01DX009 (ip), vehicle: saline with Tween-80) was 94 % of control and the T/C (dose: 200.0 mg/kg/injection, schedule: Q01DX009 (ip), vehicle: saline with Tween-80) was 100 % of control.

COc1cc(/C=C2\SC(=S)N(CCCN3CCOCC3)C2=O)ccc1O was tested, and the T/C [13] was 91 % of control.

NCCCn1[nH]c(=O)c2ncccc2c1=O was tested, and the T/C [4] was 110 % of control, the T/C [5] was 112 % of control and the T/C [6] was 102 % of control.

In the case of COC(=O)c1[nH]c(=O)c(C#N)c(C(=O)OC)c1C(=O)c1ccncc1, the T/C (dose: 50.0 mg/kg/injection, schedule: Q01DX005 (ip), vehicle: saline with Tween-80) is reported as 95 % of control and the T/C [12] is reported as 92 % of control.

In the case of NP(=O)(OCCC(=O)c1ccccc1)N(CCCl)CCCl (stereo unspecified), the T/C (dose: 25.0 mg/kg/injection, schedule: Q04DX002 (ip), vehicle: saline with Tween-80) is reported as 163 % of control, the T/C (dose: 50.0 mg/kg/injection, schedule: Q04DX002 (ip), vehicle: saline with Tween-80) is reported as 223 % of control and the T/C (dose: 100.0 mg/kg/injection, schedule: Q04DX002 (ip), vehicle: saline with Tween-80) is reported as 221 % of control and 92 % of control. For the same compound, the T/C (dose: 200.0 mg/kg/injection, schedule: Q04DX002 (ip), vehicle: saline with Tween-80) was 89 % of control.

In the case of Cc1cccc2c(C(=O)O)cc(-c3ccc(Cl)cc3)nc12, the T/C (dose: 12.5 mg/kg/injection, schedule: Q01DX009 (ip), vehicle: saline with Tween-80) is reported as 104 % of control, the T/C (dose: 25.0 mg/kg/injection, schedule: Q01DX009 (ip), vehicle: saline with Tween-80) is reported as 99 % of control and the T/C [13] is reported as 108 % of control.

For O=C1C=CC(Nc2cc(Cl)ccc2Cl)C1Nc1cc(Cl)ccc1Cl (stereo unspecified), the T/C (dose: 1.88 mg/kg/injection, schedule: Q01DX005 (ip), vehicle: saline with Tween-80) was 99 % of control, the T/C (dose: 3.75 mg/kg/injection, schedule: Q01DX005 (ip), vehicle: saline with Tween-80) was 97 % of control and the T/C (dose: 7.5 mg/kg/injection, schedule: Q01DX005 (ip), vehicle: saline with Tween-80) was 87 % of control and 93 % of control. For the same compound, the T/C [6] was 86 % of control and 89 % of control.

CC(=O)C1CCC2C3CC4OCC5(CCC(O)CC45Br)C3CCC12C (stereo unspecified) was tested, and the T/C [9] was 104 % of control, the T/C [10] was 98 % of control and the T/C [11] was 101 % of control.
